Measurements: patent US6258790A, “Antisense modulation of integrin α4 expression” (Isis Pharmaceuticals, Inc., priority 1999, dated 2001)

Test system: human integrin α4
Assay: Inhibition of human integrin α4 protein levels by antisense oligonucleotides (LIPOFECTIN, flow cytometry with CD49d-FITC) in A375 melanoma cells
Assay type: cell-based
Design: % Inhib.: tested at 200 nM
Conditions: for % Control (integrin α4 protein) / % Inhib (integrin α4 protein): Table 1, 200 nM oligonucleotide, 6 ug/ml LIPOFECTIN
Text: Integrin α4 protein levels can be quantitated in a variety of ways well known in the art, such as immunoprecipitation, Western blot analysis (immunoblotting), ELISA or fluorescence-activated cell sorting (FACS). Antibodies directed to integrin α4 can be identified and obtained from a variety of sources, such as the MSRS catalog of antibodies (Aerie Corporation, Birmingham, Mich.), or can be prepared via conventional antibody generation methods.
Target sites are indicated by nucleotide numbers, as given in the sequence source reference (GenBank accession no. L12002), to which the oligonucleotide binds. All compounds in Table 1 are 18 nucleotides in length, with a phosphorothioate backbone and a centered 10-base deoxynucleotide gap flanked by 2'-methoxyethoxy (2'MOE) wings. Human A375 melanoma cells (American Type Culture Collection, Manassas, Va.) were plated at 2000 cells/cm^2 two days before oligonucleotide treatment. Cells were treated with oligonucleotides at a dose of 200 nM oligonucleotide and 6 ug/ml LIPOFECTIN for four hours. Cells were incubated overnight and harvested with 2 mM EDTA in PBS. Cells were washed in 2% bovine serum albumin, 0.2% sodium azide in D-PBS at 4° C. Cells were centrifuged at 200×g, and the supernatant was decanted. […] Antibodies were incubated with the cells for 30 minutes at 4° C. in the dark, under gentle agitation. Cells were washed again as above and then resuspended in 0.3 ml of FacsFlow buffer with 0.5% formaldehyde. Cells were analyzed on Becton Dickinson FACScan. Results are expressed as percentage of control expression based on mean fluorescence intensity.
Cells were harvested with trypsin at 48 and 72 hours after oligonucleotide treatment and stained with 2 ug/ml CD49d-FITC as in the previous example.
Where backbones are mixed, linkages are shown as "s" for phosphorothioate (P=S or PS) and "o" for phosphodiester (P=O or PO). Where target region is indicated as `M62841,` oligonucleotides are targeted to the promotor region whose sequence is described in GenBank Accession No. M62841. Remaining oligonucleotides are targeted to the sequence described in Genbank Accession No. L12002 and their target sites on the L12002 sequence are indicated.
Target sites refer to nucleotide numbers on the target sequence (GenBank Accession No. L12002) to which the oligonucleotides hybridize.
Oligonucleotides were synthesized as "gapmers" consisting of a 9-nucleotide region of deoxynucleotides flanked by three 2'-O-methoxyethyl(2'-MOE) nucleotides on the 5' end and eight 2'-MOE nucleotides on the 3' end. 2'-MOE nucleotides are shown in bold in the table. Oligonucleotides were synthesized with phosphorothioate backbones throughout, and all cytosines are 5-methylcytosines.

[1] = Table 24, A375 cells, lipofectin, as Example 8

| Substance | % Control [1] [%] | % Control (integrin α4 protein) (A375 cells) [%] | % Inhib (integrin α4 protein) (A375 cells) [%] | also measured |
| --- | --- | --- | --- | --- |
| 107231 (antisense GTGCGGAGGCGCAGGGCCGG; chemistry not given here) [compound 107231] | 115 |  |  |  |
| 26641 (GAGCTTATTTTCATTCTTTA; phosphorothioate, 2'-MOE/deoxy, further chemistry not given here) [compound 26641] |  |  |  | inhibition (Example 11) (Example 11 assay, dose not stated): ≥ 40%; % Control (Table 6, 10 nM): 88%; % Inhib. (Table 6, 10 nM): 12%; % Control (Table 6, 30 nM): 85%; % Inhib. (Table 6, 30 nM): 15%; % Control (Table 6, 100 nM): 67%; % Inhib. (Table 6, 100 nM): 33%; % Control (Table 6, 300 nM): 31%; % Inhib. (Table 6, 300 nM (highest dose)): 69% |
| 107250 (antisense GAGTAAAAGAAGTCCAAACA; chemistry not given here) [compound 107250] | 57 |  |  | % Inhib. [1]: 43% |
| 24462 (TGGTGCTCTGCATGGGTG; chemistry not given here) [compound 24462] |  | 65 | 35 |  |
| 24741 (AGACGTTATGGCTATTCTCT; phosphorothioate deoxy, further chemistry not given here) [compound 24741] |  |  |  | % Control (Table 4, 10 nM): 109%; % Control (Table 4, 30 nM): 113%; % Control (Table 4, 100 nM): 125%; % Control (Table 4, 300 nM): 127% |
| 24442 (ATGAGGCGCAGCGTGTCC; chemistry not given here) [compound 24442] |  | 82 | 18 |  |
| 107249 (antisense CTTGTAAACAGTGTCTTTTA; chemistry not given here) [compound 107249] | 38 |  |  |  |
| 24461 (CCACAGCACAGACAGAAG; chemistry not given here) [compound 24461] |  | 69 | 31 |  |
| 24441 (CCTGGGATGCCGCGCACT; chemistry not given here) [compound 24441] |  | 112 |  |  |
| 107235 (antisense TCGCTTCCCAAGCCATGCGC; chemistry not given here) [compound 107235] | 36 |  |  |  |
| 24447 (GTGGCTGTGCAGCACGAC; chemistry not given here) [compound 24447] |  | 76 | 24 |  |
| 107246 (antisense TAATCATCATTGCTTTTACT; chemistry not given here) [compound 107246] | 42 |  |  |  |
| 24465 (TGCAGCATATTTGTCACT; chemistry not given here) [compound 24465] |  | 63 | 37 |  |
| 24440 (CGGGTGCTCGCGCTGCTT; chemistry not given here) [compound 24440] |  | 101 |  |  |
| 107243 (antisense CCAGCCTTCCACATAACATA; chemistry not given here) [compound 107243] | 39 |  |  |  |
| 24456 (CCCATCACAATTAAATCC; chemistry not given here) [compound 24456] |  | 76 | 24 |  |
| 24439 (CTCCGTCTCTGCCTACGC; chemistry not given here) [compound 24439] |  | 120 |  |  |
| 24739 (TTTAGTGACAAAGACGTTAT; phosphorothioate deoxy, further chemistry not given here) [compound 24739] |  |  |  | % Control (Table 4, 10 nM): 69%; % Inhib. (Table 4, 10 nM): 31%; % Control (Table 4, 30 nM): 67%; % Inhib. (Table 4, 30 nM): 33%; % Control (Table 4, 100 nM): 121%; % Control (Table 4, 300 nM): 107% |
